According to paper PMC4422947 (Acta Pharmacologica Sinica, 2015):

Key:
[1] = assay type: in vivo, rat; conditions: after iv or po administration of tanshinol; data not shown
[2] = target: T1, CYP2B6 (Homo sapiens, UniProt P20813); test: Inhibition of cDNA-expressed human CYP2B6; assay type: in vitro ADME; conditions: CYP2B6, 7-ethoxy-4-trifluoromethylcoumarin O-deethylation
T1 sequence (P20813 1-491): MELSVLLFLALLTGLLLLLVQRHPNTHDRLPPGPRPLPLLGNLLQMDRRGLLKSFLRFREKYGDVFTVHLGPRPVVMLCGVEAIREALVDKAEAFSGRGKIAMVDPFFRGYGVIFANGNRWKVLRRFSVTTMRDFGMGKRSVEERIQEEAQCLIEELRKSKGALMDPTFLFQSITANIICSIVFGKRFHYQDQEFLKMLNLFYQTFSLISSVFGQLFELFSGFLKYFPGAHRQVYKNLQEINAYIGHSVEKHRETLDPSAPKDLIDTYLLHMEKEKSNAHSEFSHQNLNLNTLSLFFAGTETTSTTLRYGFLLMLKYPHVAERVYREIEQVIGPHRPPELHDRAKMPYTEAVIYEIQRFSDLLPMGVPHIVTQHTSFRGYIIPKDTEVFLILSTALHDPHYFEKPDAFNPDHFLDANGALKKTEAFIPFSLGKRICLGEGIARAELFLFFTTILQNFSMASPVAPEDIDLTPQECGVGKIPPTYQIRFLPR

[3] = target: T2, CYP2A6 (Homo sapiens, UniProt P11509); test: Inhibition of cDNA-expressed human CYP2A6; assay type: in vitro ADME; conditions: CYP2A6, coumarin 7-hydroxylation
T2 sequence (P11509 1-494): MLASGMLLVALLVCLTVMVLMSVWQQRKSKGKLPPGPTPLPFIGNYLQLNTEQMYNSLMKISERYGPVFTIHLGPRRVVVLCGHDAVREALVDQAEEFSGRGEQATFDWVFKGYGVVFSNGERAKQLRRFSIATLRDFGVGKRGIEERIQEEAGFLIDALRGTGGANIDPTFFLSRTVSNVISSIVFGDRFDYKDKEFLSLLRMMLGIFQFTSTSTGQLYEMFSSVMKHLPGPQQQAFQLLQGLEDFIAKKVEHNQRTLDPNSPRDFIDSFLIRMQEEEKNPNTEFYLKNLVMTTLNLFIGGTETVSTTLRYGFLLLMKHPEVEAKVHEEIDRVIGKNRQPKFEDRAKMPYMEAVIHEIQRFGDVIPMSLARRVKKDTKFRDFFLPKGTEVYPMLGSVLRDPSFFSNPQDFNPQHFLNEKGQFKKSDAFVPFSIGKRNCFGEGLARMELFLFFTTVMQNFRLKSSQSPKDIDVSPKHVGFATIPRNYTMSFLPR

Detection in rat samples [1] | Molecule | IC50 [2] [µM] | IC50 [3] [µM]
not detected | 8-O-methyltanshinol |  | 
 | N[C@@H]1C[C@H]1c1ccccc1 (racemic) [tranylcypromine] | 5.9 | 0.07
not detected | COC(=O)C(O)Cc1ccc(O)c(O)c1 (stereo not shown) [tanshinol methyl ester] |  | 
